The source of these data is patent US7749953B2, “Methods compositions and articles of manufacture for modulating bone growth” (Yissum Research Development Company of the Hebrew …, priority 2002, dated 2010).

For experiment [1], the system named is 11 week-old C3H (Harlan) mice. Kind of experiment: In vivo bone formation activity, calcein dynamic histomorphometry of distal femoral metaphysis. The protocol: The endocannabinoid 2-arachidonoyl glycerol (2AG) and the CB1 cannabinoid receptor antagonist N-(piperidin-1-yl)-5-(4-chlorophenyl)-1-(2,4-dichlorophenyl)4-methyl-1H-pyrazole-3-carboxamide hydrochloride (SR-141761A; Panikashvili et al., Nature 413: 527-531 (2001)] were dissolved in 1:1:18 ethanol:emulfor:saline (v/v/v) vehicle. Different dosages of each agent were daily injected intraperitoneally to 11 week-old C3H (Harlan) mice. 2AG was administered at 0 (vehicle control), 0.5, 5, and 20 mg/Kg body weight per day for 9 days; SR-141761A was administered at 1 and 10 mg/Kg body weight per day for 9 days.
To assess the in vivo bone formation activity the mice were given 15 mg/Kg body weight calcein intrapertoneally, four days and one day (same day as the last 2AG injection) prior to sacrifice. Femoral bones were separated immediately after sacrifice and subjected, undecalcified, to histological processing. Dynamic bone histomorphometric parameters were analyzed in the distal metaphysis (secondary spongiosa) in unstained longitudinal mid-saggital sections, using the procedure described by Parfitt et al. [J. Bone Miner. Res. 2: 595-610 (1987)]. The data obtained were statistically analyzed by Mann-Whitney U-test to determine significance of differences between the treatments.

For experiment [2], the system named is primary bone marrow derived monocytes. The experiment in a line: Osteoclast differentiation, TRAP-positive osteoclast-like cell count in bone marrow derived monocyte culture with M-CSF and RANKL. To be noted: 5 days in the presence of M-CSF and RANKL. The experiment is classed as cell-based, Mouse. Here is the method: Mouse femoral monocytes were separated on a Ficoll gradient and grown in culture for 5 days in medium containing the osteoclast differentiation factors M-CFS and RANKL as described by Zou et al FASEB J 2002; 16:274-82). At the end of incubation cultures were analyzed for CB2 and FAAH expression by RT-PCR as described above, and were stained with an osteoclast marker tartarate-resistant acid phosphatase for direct observation of differentiated osteoclasts.
In vitro effect of HU-308: Differentiating primary bone marrow stromal cells and MC3T3 E1 osteoblasts were initially incubated in osteogenic medium for 10 days followed by 2 h serum starvation. […] In the primary cultures, cells were counted after 48 h incubation in αMEM supplemented with 4% BSA and ligand. BrdU incorporation was determined in MC3T3 E1 cells after 24 h incubation with HU-308 preceded by 2 h with pertussis toxin (PTX). DNA content, tissue non-specific alkaline phosphatase (TNSALP) activity and calcium were determined in MC3T3 E1 cells grown for 20 days in osteogenic medium and supplemented with HU-308 in the last 14 days. The effect of HU-308 on osteoclast differentiation was measured in the osteoclastogenic system described above, supplemented with HU-308 dissolved initially in DMSO and diluted with medium. […]

Another experiment concerns RAW 264.7 cells. Kind of experiment: Osteoclast-like cell count in RAW 264.7 cell culture. The experiment is classed as cell-based. To be noted: 7-day RAW 264.7 cell culture supplemented with M-CSF. Here is the method:
(§1) In vitro effect of HU-308: Differentiating primary bone marrow stromal cells and MC3T3 E1 osteoblasts were initially incubated in osteogenic medium for 10 days followed by 2 h serum starvation. Ligands were dissolved in dimethylsulfoxide (DMSO) and further diluted to their final concentration using tissue culture medium. In the primary cultures, cells were counted after 48 h incubation in αMEM supplemented with 4% BSA and ligand. BrdU incorporation was determined in MC3T3 E1 cells after 24 h incubation with HU-308 preceded by 2 h with pertussis toxin (PTX). DNA content, tissue non-specific alkaline phosphatase (TNSALP) activity and calcium were determined in MC3T3 E1 cells grown for 20 days in osteogenic medium and supplemented with HU-308 in the last 14 days. The effect of HU-308 on osteoclast differentiation was measured in the osteoclastogenic system described above, supplemented with HU-308 dissolved initially in DMSO and diluted with medium. HU-308 was also tested in a RAW 264.7 cell grown for 7 days in RANKL-supplemented medium. For osteoclast-like cell counts the cultures were fixed in ethanol and TRAP-stained.

A further experiment deals with MC3T3 E1 cells. Kind of experiment: BrdU incorporation (DNA synthesis) in partially differentiated MC3T3 E1 osteoblastic cells. The experiment is classed as cell-based, murine. To be noted: 24 h exposure to HU-308. Here is the method:
as §1
On the technique in general: Incorporation of labelled thymidine or its analogues reports DNA synthesis.

The test system of a further experiment is OVX C3H mice. Kind of experiment: OVX-induced femoral bone loss, μCT and histomorphometry. The class given is in vivo. To be noted: HU-308 10 mg/Kg/day i.p. Here is the method:
Animals: Mice with a deletion of the CNR2 gene (CB2^−/− mice) (9) were crossed for 10 generations to wild type C57BL/6J mice to generate a congenic C57BL/6J CB2^−/− strain. The effect of CB2 signalling on OVX-induced bone loss was analysed in normal C3H mice (Harlan, Israel) due to their high femoral bone density (10), which allows for a substantial amount of bone loss to occur. Because of the low trabecular bone volume density in C57BL/6J females (FIG. 8A), the absolute amount of OVX-induced bone loss in these animals is small and a large sample is required to achieve statistical significance. In addition, the number of calcein labelled packets (see below) in OVX C57BL/6J mice is often too small for the calculation of bone formation parameters in the trabecular compartment. HU-308, synthetic CB2 specific agonist with a MW of 414 g/mol, was prepared as described by Hildebrand et al. (11) and injected intraperitoneally to OVX and control mice once daily as ethanol/emulphor/saline (1:1:18) solution. To study bone formation, newly formed bone was vitally labelled in all reported animals by the fluorochrome calcein (Sigma), injected intraperitoneally (15 mg/Kg) four days and one day prior to sacrifice. Groups of 8-10 mice, 8-11 or 51 weeks old, were used in each experiment. The experimental protocols were approved by the Institutional Animal Care and Use Committee, Faculty of Medicine, the Hebrew University of Jerusalem, Israel and by the Regierungspräsidium Köln for the University of Bonn, Germany.
Micro-computed tomographic (μCT) analysis: The μCT Analyses were performed as described in Example 1 above.
Histomorphometry and immunohistochemistry: After μCT image acquisition, the specimens were embedded undecalcified in Technovit 9100 (Heraeus Kulzer, Wehrheim, Germany). Longitudinal sections through the mid-frontal plane were left unstained for dynamic histomorphometry based on the vital calcein double labeling. To identify osteoclasts, consecutive sections were stained for tartrate-resistant acid phosphatase (TRAP) (14). Parameters were determined according to a standardized nomenclature (15). Immunohistochemistry was performed using paraffin-embedded decalcified sections (16) with a polyclonal first antibody raised against the human CB2(20-33) peptide (Cayman Ann Arbor, Mich.; Cat. No. 101550). The same peptide (Cayman Ann Arbor, Mich.; Cat. No. 301550) was used to block protein-antibody complex formation in control staining.
Statistical Analyses: Differences between CB2^−/− and WT mice were analysed by t-test. HU-308 and vehicle treated OVX and sham-OVX mice were analysed by ANOVA. When significant differences were indicated by ANOVA, group means were compared using the Tukey test for pairwise comparisons.

In a further experiment the test system is mature MC3T3 E1 cells. Kind of experiment: DNA content, TNSALP activity and calcium in mature MC3T3 E1 osteoblasts. The experiment is classed as cell-based, murine. The following applies: 20 days osteogenic medium, HU-308 during last 14 days. The protocol: as §1
For experiment [3], the system named is diaphyseal bone marrow derived stromal cells. The experiment in a line: Cell count, TNSALP activity and mineralization in differentiating primary bone marrow stromal cells (10 days osteogenic medium). The class given is cell-based, mice. The following applies: for number of diaphyseal bone marrow derived stromal cells: cells grown 10 days in osteogenic medium, counted after 48 h with ligand. The protocol:
mRNA analysis: Primary osteoblastogenic cultures of stromal cells were prepared from femoral and tibial diaphyseal bone marrow of WT C57BL/6J mice and grown in “osteogenic medium” containing ascorbic acid, β-glycerophophate and dexamethasone (Sigma) as described by Frenkel et al. (17). Real-time RT-PCR analysis was carried out using Applied Biosystems Assay-on-Demand. Data was normalized GAPDH. Assay ID: GAPDH, Mm99999915_g1; CB1, Mm00432621_s1; CB2, Mm00438286_m1; PTHRc1, Mm00441046_m1; RUNX2, Mm00501578_m1; TNSALP, Mm00475831_m1. RT-PCR analysis was carried out using the primers described by Lee et al. (19).
as §1

[4] abbreviates: 2AG up to 5 mg/Kg/day i.p. for 9 days, followed by a plateau.
Where [5] appears, read: SR-141761A up to 10 mg/Kg/day i.p. for 9 days, data not shown.
The mark [6] stands for this setting: 4 weeks from ovariectomy, distal femoral metaphysis.
The mark [7] stands for this setting: early differentiation stage (10 days osteogenic medium).

Entries after “also recorded” stand apart in the source; their conditions may differ.

For `CCCCC/C=C\C/C=C\C/C=C\C/C=C\CCCC(=O)OC(CO)CO` [2AG, 2-arachidonoyl glycerol], the “uptake of fluorescently labeled calcein in bone tissue (fluorescent histological images)” value in experiment [1] (2AG 5 mg/Kg/day vs vehicle-treated controls) is recorded as “visibly increased”. Moreover, in experiment [1] (2AG 5 and 20 mg/Kg/day i.p. for 9 days, p=0.019), the “mineralizing perimeter (MP) vs control” value was “substantially and significantly higher”. Also, in experiment [1] (2AG 5 and 20 mg/Kg/day intraperitoneally for 9 days, p=0.04), the “bone-formation rate (BFR) higher than the vehicle control” value was “up to 44%”. Also, the mineral appositional rate result in experiment [1] (2AG i.p. for 9 days) is listed as “no significant effect”. In experiment [1] (setting [4]), the “bone-formation rate (BFR), dose response” value is given as “dose-dependent stimulation; also recorded: significant positive dose response effect” and the “mineralizing perimeter (MP), dose response” value is “dose-dependent increase”.

For the compound `Cc1c(C(=O)NN2CCCCC2)nn(-c2ccc(Cl)cc2Cl)c1-c1ccc(Cl)cc1.Cl` [SR-141761A, N-(piperidin-1-yl)-5-(4-chlorophenyl)-1-(2,4-dichlorophenyl)4-methyl-1H-pyrazole-3-carboxamide hydrochloride], in experiment [1] (setting [5]), the “BFR (osteoblastic activity) vs vehicle control” value is “higher (but not statistically different)”; the “MP (osteoblast number) vs vehicle control” value is “higher and statistically different”.

With `CCCCCCC(C)(C)c1cc(OC)c([C@H]2C=C(CO)C3CC2C3(C)C)c(OC)c1` (single isomer, unassigned; (+)) [HU-308, (+)-(1-a-H,-(3-H,5-a-H)-4-(2,6-dimethoxy-4-(1,1-dimethylhept-yl)phenyl]-6,6 dimethylbicycloj3.1.1]hept-2-ene-2-carbinol], the “number of osteoclast-like cells” value in experiment [2] was “dose dependently inhibited”. Besides, in the experiment on RAW 264.7 cells, the “number of osteoclast-like cells” value was “reduced”. Further, in the experiment on MC3T3 E1 cells, the “DNA synthesis (BrdU uptake)” value was “stimulation”. For the same compound, the “bone formation in the trabecular compartment” value in the experiment with OVX C3H mice (4 weeks from ovariectomy) is on record as “did not stimulate”. Further, in the experiment with OVX C3H mice (setting [6]), the “OVX-induced trabecular bone loss (trabecular bone volume density)” value was “attenuation” and the osteoclast number entry was “further inhibited”. Moreover, in the experiment on OVX C3H mice (4 weeks, mid-diaphysis), the endocortical bone formation result is listed as “vast stimulation” and the “size of the medullary cavity” value is “significant reduction”. Besides, the cortical thickness entry with OVX C3H mice (4 weeks, mid-diaphysis, exceeded OVX and sham-OVX mice) was “marked increase”. Besides, in the experiment on mature MC3T3 E1 cells, the TNSALP activity result was “markedly enhanced” and the “accumulation of extracellular mineral” value is “markedly enhanced”. The “cell number (measured as DNA content)” value in the experiment with mature MC3T3 E1 cells (compared with partially differentiated cells) was “milder”. Also, the “number of diaphyseal bone marrow derived stromal cells” value in experiment [3] is listed as “potently increased”. For the same compound, in experiment [3] (setting [7]), the TNSALP activity entry is on record as “unaffected” and the matrix mineralization entry is “unaffected”.

For `CCCCC/C=C\C/C=C\C/C=C\C/C=C\CCCCOC(CO)CO` [Noladin ether, 2-arachidonyl glyceryl ether, reference compound], the “number of diaphyseal bone marrow derived stromal cells” value in experiment [3] was “no significant effect”.
